Reference: the NIST ThermoML archive (doi:10.1021/acs.jced.7b00039)
Numbers after ± are expanded uncertainties.

Assay: wn = mass fraction of the nth substance listed
Conditions: 100 kPa, Liquid; for viscosity: Cone and plate viscometry; for mass density: Vibrating tube method

`CC(CC(C)(C)C)CP(=O)([O-])CC(C)CC(C)(C)C.CCCCCCCCCCCCCC[P+](CCCCCC)(CCCCCC)CCCCCC` + CCCC(=O)O gave a viscosity (298 K, w2 = 0) of 1023 ± 120 mPa·s, a viscosity (298 K, w2 = 0.0122) of 952 ± 110 mPa·s and a viscosity (298 K, w2 = 0.0346) of 785 ± 90 mPa·s. It also gave a viscosity (298 K, w2 = 0.0349) of 787 ± 91 mPa·s, a viscosity (298 K, w2 = 0.0684) of 562 ± 63 mPa·s and a viscosity (298 K, w2 = 0.14) of 348 ± 38 mPa·s. For the same molecule, the viscosity (298 K, w2 = 0.242) was 216 ± 23 mPa·s, the viscosity (298 K, w2 = 0.301) was 159 ± 17 mPa·s and the viscosity (298 K, w2 = 0.375) was 92.7 ± 9.6 mPa·s. The viscosity (298 K, w2 = 0.44) was 56.9 ± 5.9 mPa·s, the viscosity (298 K, w2 = 0.491) was 38.8 ± 4 mPa·s and the viscosity (298 K, w2 = 0.715) was 7.55 ± 0.79 mPa·s. For the same molecule, the viscosity (298 K, w2 = 0.991) was 1.69 ± 0.17 mPa·s, the mass density (298 K, w2 = 0) was 884.09 ± 9.7 kg/m3 and the mass density (298 K, w2 = 0.0122) was 886.44 ± 9.7 kg/m3. The mass density (298 K, w2 = 0.0346) was 892.23 ± 9.7 kg/m3, the mass density (298 K, w2 = 0.0349) was 889.81 ± 9.6 kg/m3 and the mass density (298 K, w2 = 0.0684) was 893.84 ± 9.6 kg/m3. For the same molecule, the mass density (298 K, w2 = 0.14) was 899.77 ± 9.5 kg/m3, the mass density (298 K, w2 = 0.242) was 909.13 ± 9.5 kg/m3 and the mass density (298 K, w2 = 0.301) was 914.05 ± 9.4 kg/m3. For the same molecule, the mass density (298 K, w2 = 0.375) was 919.8 ± 9.4 kg/m3, the mass density (298 K, w2 = 0.44) was 924.13 ± 9.4 kg/m3 and the mass density (298 K, w2 = 0.491) was 927.26 ± 9.4 kg/m3. It also gave a mass density (298 K, w2 = 0.715) of 939.25 ± 9.4 kg/m3, a mass density (298 K, w2 = 0.991) of 953.5 ± 9.5 kg/m3 and a viscosity (310 K, w2 = 0) of 521 ± 59 mPa·s. It also gave a viscosity (310 K, w2 = 0.0122) of 465 ± 52 mPa·s, a viscosity (310 K, w2 = 0.0346) of 389 ± 43 mPa·s and a viscosity (310 K, w2 = 0.0349) of 388 ± 43 mPa·s. It also gave a viscosity (310 K, w2 = 0.0684) of 278 ± 30 mPa·s, a viscosity (310 K, w2 = 0.14) of 181 ± 19 mPa·s and a viscosity (310 K, w2 = 0.242) of 118 ± 12 mPa·s. The viscosity (310 K, w2 = 0.301) was 87.9 ± 9.1 mPa·s, the viscosity (310 K, w2 = 0.375) was 53.5 ± 5.5 mPa·s and the viscosity (310 K, w2 = 0.44) was 34.4 ± 3.5 mPa·s. For the same molecule, the viscosity (310 K, w2 = 0.491) was 24.6 ± 2.5 mPa·s, the viscosity (310 K, w2 = 0.715) was 5.51 ± 0.56 mPa·s and the viscosity (310 K, w2 = 0.991) was 1.39 ± 0.14 mPa·s. The mass density (310 K, w2 = 0) was 876.93 ± 9.6 kg/m3, the mass density (310 K, w2 = 0.0122) was 879.26 ± 9.6 kg/m3 and the mass density (310 K, w2 = 0.0346) was 884.71 ± 9.6 kg/m3. It also gave a mass density (310 K, w2 = 0.0349) of 882.5 ± 9.6 kg/m3, a mass density (310 K, w2 = 0.0684) of 886.39 ± 9.5 kg/m3 and a mass density (310 K, w2 = 0.14) of 892.33 ± 9.4 kg/m3. It also gave a mass density (310 K, w2 = 0.242) of 901.49 ± 9.4 kg/m3, a mass density (310 K, w2 = 0.301) of 906.22 ± 9.3 kg/m3 and a mass density (310 K, w2 = 0.375) of 911.62 ± 9.3 kg/m3. The mass density (310 K, w2 = 0.44) was 915.64 ± 9.3 kg/m3, the mass density (310 K, w2 = 0.491) was 918.52 ± 9.3 kg/m3 and the mass density (310 K, w2 = 0.715) was 929.27 ± 9.3 kg/m3. It also gave a mass density (310 K, w2 = 0.991) of 941.63 ± 9.4 kg/m3, a viscosity (318 K, w2 = 0) of 345 ± 38 mPa·s and a viscosity (318 K, w2 = 0.0122) of 304 ± 33 mPa·s. For the same molecule, the viscosity (318 K, w2 = 0.0346) was 257 ± 28 mPa·s, the viscosity (318 K, w2 = 0.0349) was 255 ± 28 mPa·s and the viscosity (318 K, w2 = 0.0684) was 185 ± 20 mPa·s. For the same molecule, the viscosity (318 K, w2 = 0.14) was 123 ± 13 mPa·s, the viscosity (318 K, w2 = 0.242) was 82.2 ± 8.5 mPa·s and the viscosity (318 K, w2 = 0.301) was 62.1 ± 6.4 mPa·s. The viscosity (318 K, w2 = 0.375) was 38.9 ± 4 mPa·s, the viscosity (318 K, w2 = 0.44) was 25.5 ± 2.6 mPa·s and the viscosity (318 K, w2 = 0.491) was 18.8 ± 1.9 mPa·s. For the same molecule, the viscosity (318 K, w2 = 0.715) was 4.56 ± 0.47 mPa·s, the viscosity (318 K, w2 = 0.991) was 1.23 ± 0.12 mPa·s and the mass density (318 K, w2 = 0) was 872.2 ± 9.5 kg/m3. For the same molecule, the mass density (318 K, w2 = 0.0122) was 874.5 ± 9.5 kg/m3, the mass density (318 K, w2 = 0.0346) was 879.8 ± 9.5 kg/m3 and the mass density (318 K, w2 = 0.0349) was 877.64 ± 9.5 kg/m3. It also gave a mass density (318 K, w2 = 0.0684) of 881.5 ± 9.5 kg/m3, a mass density (318 K, w2 = 0.14) of 887.48 ± 9.4 kg/m3 and a mass density (318 K, w2 = 0.242) of 896.4 ± 9.3 kg/m3. For the same molecule, the mass density (318 K, w2 = 0.301) was 901 ± 9.3 kg/m3, the mass density (318 K, w2 = 0.375) was 906.17 ± 9.3 kg/m3 and the mass density (318 K, w2 = 0.44) was 909.99 ± 9.2 kg/m3. For the same molecule, the mass density (318 K, w2 = 0.491) was 912.71 ± 9.2 kg/m3, the mass density (318 K, w2 = 0.715) was 922.63 ± 9.3 kg/m3 and the mass density (318 K, w2 = 0.991) was 933.77 ± 9.3 kg/m3.
